Test system: patients of Parkinson's disease experiencing motor fluctuations
Experiment: Pooled analysis of phase 2b and phase 3 clinical studies of istradefylline combined with L-DOPA: change from baseline to week 12 and CGI-I at week 12
Format: in vivo, human
Conditions: for Mean daily OFF time, change from baseline to week 12: 12 weeks; for Mean daily OFF time, change from baseline to week 12 / Mean daily ON time with dyskinesia, change from baseline to week 12 / Mean daily ON time with non-troublesome dyskinesia, change from baseline to week 12 / Mean daily ON time with troublesome dyskinesia, change from baseline to week 12 / Mean daily ON time without dyskinesia, change from baseline to week 12 / Mean daily ON time without troublesome dyskinesia, change from baseline to week 12 / Mean daily percentage of OFF time, change from baseline to week 12 / Mean daily percentage of ON time with dyskinesia, change from baseline to week 12 / Mean daily percentage of ON time with non-troublesome dyskinesia, change from baseline to week 12 / Mean daily percentage of ON time with troublesome dyskinesia, change from baseline to week 12 / Mean daily percentage of ON time without dyskinesia, change from baseline to week 12 / Mean daily percentage of ON time without troublesome dyskinesia, change from baseline to week 12 / Total UPDRS Parts I-III at ON state, change from baseline to week 12 / UPDRS Part I score, change from baseline to week 12 / UPDRS Part II score OFF state, change from baseline to week 12 / UPDRS Part II score ON state, change from baseline to week 12 / UPDRS Part III score at ON state, change from baseline to week 12 / UPDRS Part IV score, change from baseline to week 12: mean ± SD; for CGI-I Minimally improved, % of patients / CGI-I Minimally improved, number of patients / CGI-I Minimally worse, % of patients / CGI-I Minimally worse, number of patients / CGI-I Much improved, % of patients / CGI-I Much improved, number of patients / CGI-I Much worse, % of patients / CGI-I Much worse, number of patients / CGI-I No change, % of patients / CGI-I No change, number of patients / CGI-I Very much improved, % of patients / CGI-I Very much improved, number of patients / CGI-I Very much worse, % of patients / CGI-I Very much worse, number of patients: week 12
Description: A pooled analysis was performed for two clinical studies of istradefylline combined with L-DOPA previously conducted in Japan. Both studies were performed according to the principles of the Declaration of Helsinki and were identically designed for 12-week, multicenter, randomized, double-blind, placebo-controlled, and parallel-group studies approved by the relevant institutional review boards of each center [(i) Mizuno Y, Kondo T. Adenosine A2A receptor antagonist istradefylline reduces daily OFF time in Parkinson's disease. Mov Disord 2013; 28: 1138-41, and (ii) Mizuno Y, Hasegawa K, Kondo T, et al. Clinical efficacy of istradefylline (KW-6002) in Parkinson's disease: a randomized, controlled study. Mov Disord 2010; 25(10): 1437-43)]. Both studies were registered in ClinicalTrials.gov (NCT00455507 [phase 2b] and NCT00955526 [phase 3]). Both studies enrolled patients of Parkinson's disease who were experiencing motor fluctuations.
Key inclusion criteria included age 20 years, stages 2-4 (OFF state) based on the Modified Hoehn and Yahr (mH&Y) scale, stable treatment regimen of antiparkinsonian drugs, and motor fluctuations with an OFF time of 2 hours or longer per day. Key exclusion criteria included history of surgical operation for Parkinson's disease, cognitive impairment, and pregnancy. The study protocols were approved by the institutional review boards at all participating study sites, and written informed consent was obtained from all patients prior to participation.
In both studies, eligible subjects were randomized to one of three groups: 12-week istradefylline 20 mg/day group, 12-week istradefylline 40 mg/day group, and 12-week placebo group. The subjects attended site visits at weeks 2, 4, 8, and 12 after randomization, and submitted patient diaries covering the 7-day period prior to each visit. The full analysis set included subjects who received at least one dose of study drug and completed at least one set of patient diaries.
The primary outcomes were changes in OFF time (hours/day) from baseline to 12 weeks obtained from the patient diaries, which were compared between the placebo group and the istradefylline group. Other outcomes included changes (%) in daily OFF time, changes in ON time without troublesome dyskinesia (“Good” ON time) (Hauser RA, Deckers F, Lehert P. Parkinson's disease home diary: further validation and implications for clinical trials. Mov Disord 2004; 19(12): 1409-13), (which was the summation of ON time without dyskinesia and ON time with non-troublesome dyskinesia), UPDRS parts I-IV score, and changes in Clinical Global Impressions-Improvement (CGI-I) score from baseline to 12 weeks. The varying from baseline values, and the treatment effect were determined as a difference in mean change between the placebo group and the istradefylline group during the follow up period.
Baseline data were summarized for all and respective treatment groups (placebo and istradefylline: 20 mg or 40 mg). Continuous variables were expressed as mean and standard deviation (SD), whereas categorical variables were expressed as proportions. The following statistical analyses were performed for patients without any missing data (listwise deletion or complete case analysis).

[1] = 20 mg/day, listed as Istradefylline
[2] = 40 mg/day, listed as Istradefylline

## CCn1c(=O)c2c(nc(/C=C/c3ccc(OC)c(OC)c3)n2C)n(CC)c1=O [istradefylline]
20 mg/day, N = 235
  Mean daily OFF time, change from baseline to week 12: significant reductions
20 mg/day, N = 235, listed as Istradefylline
  Mean daily OFF time, change from baseline to week 12: -1.23 ± 1.97 h
20 mg/day
  Mean daily ON time with dyskinesia, change from baseline to week 12: 0.19 ± 1.53 h
  Mean daily ON time with non-troublesome dyskinesia, change from baseline to week 12: significantly increased
  Mean daily ON time with troublesome dyskinesia, change from baseline to week 12: 0.03 ± 1.33 h
  Mean daily ON time without dyskinesia, change from baseline to week 12: significantly increased
  Mean daily ON time without troublesome dyskinesia, change from baseline to week 12: significantly increased
  Mean daily percentage of OFF time, change from baseline to week 12: significant reductions
  Mean daily percentage of ON time with dyskinesia, change from baseline to week 12: 1.32 ± 9.36%
  Mean daily percentage of ON time with non-troublesome dyskinesia, change from baseline to week 12: significantly increased
  Mean daily percentage of ON time with troublesome dyskinesia, change from baseline to week 12: 0.15 ± 8.12%
  Mean daily percentage of ON time without dyskinesia, change from baseline to week 12: significantly increased
  Mean daily percentage of ON time without troublesome dyskinesia, change from baseline to week 12: significantly increased
  Total UPDRS Parts I-III at ON state, change from baseline to week 12: significant reductions
  UPDRS Part I score, change from baseline to week 12: −0.2 ± 0.9
  UPDRS Part II score OFF state, change from baseline to week 12: −1.8 ± 4.1
  UPDRS Part II score ON state, change from baseline to week 12: −0.5 ± 2.3
  UPDRS Part III score at ON state, change from baseline to week 12: significant reductions
  UPDRS Part IV score, change from baseline to week 12: −0.1 ± 1.6
  CGI-I Minimally improved, % of patients: (36.2) %
  CGI-I Minimally improved, number of patients: 85 number of patients
  CGI-I Minimally worse, % of patients: (5.1) %
  CGI-I Minimally worse, number of patients: 12 number of patients
  CGI-I Much improved, % of patients: (18.3) %
  CGI-I Much improved, number of patients: 43 number of patients
  CGI-I Much worse, % of patients: (1.3) %
  CGI-I Much worse, number of patients: 3 number of patients
  CGI-I No change, % of patients: (36.2) %
  CGI-I No change, number of patients: 85 number of patients
  CGI-I Very much improved, % of patients: (2.6) %
  CGI-I Very much improved, number of patients: 6 number of patients
  CGI-I Very much worse, % of patients: (0.4) %
  CGI-I Very much worse, number of patients: 1 number of patients
[1]
  Mean daily ON time with non-troublesome dyskinesia, change from baseline to week 12: 0.16 ± 1.56 h
  Mean daily ON time without dyskinesia, change from baseline to week 12: 1.03 ± 2.20 h
  Mean daily ON time without troublesome dyskinesia, change from baseline to week 12: 1.19 ± 2.44 h
  Mean daily percentage of OFF time, change from baseline to week 12: −7.62 ± 12.62%
  Mean daily percentage of ON time with non-troublesome dyskinesia, change from baseline to week 12: 1.17 ± 9.54%
  Mean daily percentage of ON time without dyskinesia, change from baseline to week 12: 6.28 ± 13.68%
  Mean daily percentage of ON time without troublesome dyskinesia, change from baseline to week 12: 7.45 ± 14.95%
  Total UPDRS Parts I-III at ON state, change from baseline to week 12: −5.8 ± 8.6
  UPDRS Part III score at ON state, change from baseline to week 12: −5.1 ± 7.2
40 mg/day, N = 247
  Mean daily OFF time, change from baseline to week 12: significant reductions
40 mg/day, N = 247, listed as Istradefylline
  Mean daily OFF time, change from baseline to week 12: -1.27 ± 2.42 h
40 mg/day
  Mean daily ON time with dyskinesia, change from baseline to week 12: 0.20 ± 1.93 h
  Mean daily ON time with non-troublesome dyskinesia, change from baseline to week 12: significantly increased
  Mean daily ON time with troublesome dyskinesia, change from baseline to week 12: 0.06 ± 1.13 h
  Mean daily ON time without dyskinesia, change from baseline to week 12: significantly increased
  Mean daily ON time without troublesome dyskinesia, change from baseline to week 12: significantly increased
  Mean daily percentage of OFF time, change from baseline to week 12: significant reductions
  Mean daily percentage of ON time with dyskinesia, change from baseline to week 12: 1.28 ± 11.40%
  Mean daily percentage of ON time with non-troublesome dyskinesia, change from baseline to week 12: significantly increased
  Mean daily percentage of ON time with troublesome dyskinesia, change from baseline to week 12: 0.36 ± 6.44%
  Mean daily percentage of ON time without dyskinesia, change from baseline to week 12: significantly increased
  Mean daily percentage of ON time without troublesome dyskinesia, change from baseline to week 12: significantly increased
  Total UPDRS Parts I-III at ON state, change from baseline to week 12: significant reductions
  UPDRS Part I score, change from baseline to week 12: −0.1 ± 1.0
  UPDRS Part II score OFF state, change from baseline to week 12: significant reductions
  UPDRS Part II score ON state, change from baseline to week 12: −0.7 ± 2.2
  UPDRS Part III score at ON state, change from baseline to week 12: significant reductions
  UPDRS Part IV score, change from baseline to week 12: significant reductions
  CGI-I Minimally improved, % of patients: (32.5) %
  CGI-I Minimally improved, number of patients: 80 number of patients
  CGI-I Minimally worse, % of patients: (6.5) %
  CGI-I Minimally worse, number of patients: 16 number of patients
  CGI-I Much improved, % of patients: (21.5) %
  CGI-I Much improved, number of patients: 53 number of patients
  CGI-I Much worse, % of patients: (0.8) %
  CGI-I Much worse, number of patients: 2 number of patients
  CGI-I No change, % of patients: (34.1) %
  CGI-I No change, number of patients: 84 number of patients
  CGI-I Very much improved, % of patients: (4.5) %
  CGI-I Very much improved, number of patients: 11 number of patients
  CGI-I Very much worse, % of patients: (0.0) %
  CGI-I Very much worse, number of patients: 0 number of patients
[2]
  Mean daily ON time with non-troublesome dyskinesia, change from baseline to week 12: 0.15 ± 1.36 h
  Mean daily ON time without dyskinesia, change from baseline to week 12: 0.99 ± 2.86 h
  Mean daily ON time without troublesome dyskinesia, change from baseline to week 12: 1.13 ± 2.65 h
  Mean daily percentage of OFF time, change from baseline to week 12: −7.76 ± 15.02%
  Mean daily percentage of ON time with non-troublesome dyskinesia, change from baseline to week 12: 0.92 ± 8.26%
  Mean daily percentage of ON time without dyskinesia, change from baseline to week 12: 6.46 ± 17.10%
  Mean daily percentage of ON time without troublesome dyskinesia, change from baseline to week 12: 7.39 ± 15.73%
  Total UPDRS Parts I-III at ON state, change from baseline to week 12: −6.3 ± 8.1
  UPDRS Part II score OFF state, change from baseline to week 12: −2.0 ± 3.8
  UPDRS Part III score at ON state, change from baseline to week 12: −5.5 ± 6.6
  UPDRS Part IV score, change from baseline to week 12: −0.5 ± 1.6
